Among the test systems are LOX IMVI melanoma; SK-MEL-28 melanoma; RPMI-8226 leukemia; SK-MEL-2 melanoma; NCI-H226 lung; SF-268 CNS; TK-10 renal; OVCAR-5 ovarian; HOP-92 NSCLC; MALME-3M melanoma.
Common to all, as to assay: DTP human tumour cell line panel, 48 h

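Briefly, cells in 96-well plates were exposed to five compound concentrations for 48 h, and endpoints were estimated by linear interpolation. GI50 = concentration required for 50% inhibition of growth. At the TGI there is no net growth.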

As to `C=C1C(=O)O[C@H]2[C@H]1CC/C(COC(=O)c1ccc(Br)cc1)=C\CC[C@@]1(C)O[C@@H]21`, the GI50 is 0.797 µM with LOX IMVI melanoma; 1.7 µM in the test with SK-MEL-28 melanoma; 0.543 µM in the test on RPMI-8226 leukemia; 1.64 µM with SK-MEL-2 melanoma; 2.06 µM in the test on NCI-H226 lung; 1.55 µM in the test on SF-268 CNS. Besides, the GI50 in the test on TK-10 renal is 1.9 µM; in the test on OVCAR-5 ovarian it was 1.68 µM; in the test on HOP-92 NSCLC, 1.72 µM. Further, the TGI in the test on LOX IMVI melanoma was found to be 2.19 µM; with SK-MEL-28 melanoma it was 3.39 µM; with RPMI-8226 leukemia, 3.85 µM; in the test on SK-MEL-2 melanoma it was 3.06 µM; with NCI-H226 lung it was 4.57 µM; with SF-268 CNS, 3.14 µM. Further, the figures for the concentration for total growth inhibition (TGI) with TK-10 renal, in the test with OVCAR-5 ovarian and in the test on HOP-92 NSCLC were 3.33 µM, 3.62 µM and 3.29 µM, respectively.
In the case of `COc1ccc(C(=O)C(CN(C)C)c2ccccc2)cc1` (configuration not stated), the GI50 in the test with LOX IMVI melanoma is 1.73 µM; in the test on SK-MEL-28 melanoma, 1.83 µM; with RPMI-8226 leukemia it was 1.88 µM; with SK-MEL-2 melanoma, 3.09 µM; with NCI-H226 lung it was 2.67 µM; with SF-268 CNS, 2.17 µM. Also, the GI50 in the test on TK-10 renal was 3.01 µM; with OVCAR-5 ovarian it was 3.82 µM; in the test on MALME-3M melanoma it was 3.3 µM. For the same compound, the concentration for total growth inhibition (TGI) with LOX IMVI melanoma was 3.8 µM; in the test with SK-MEL-28 melanoma, 3.38 µM; with RPMI-8226 leukemia it was above 100 µM; in the test with SK-MEL-2 melanoma, 7.97 µM; in the test with NCI-H226 lung, 8.59 µM; in the test with SF-268 CNS it was 4.86 µM. The figures for the TGI in the test on TK-10 renal, in the test on OVCAR-5 ovarian and with MALME-3M melanoma were 7.85 µM, 10 µM and 13.6 µM, respectively.
For `O=C1/C(=C/c2ccccc2)CN(C(=O)Oc2ccccc2)C/C1=C\c1ccccc1`, the TGI was 29.9 µM with LOX IMVI melanoma; above 100 µM in the test with SK-MEL-28 melanoma; 0.819 µM with RPMI-8226 leukemia; 65.5 µM with SK-MEL-2 melanoma; above 100 µM in the test with SF-268 CNS; 42.5 µM with TK-10 renal. Further, the total growth inhibition concentration (TGI) in the test with OVCAR-5 ovarian and in the test with MALME-3M melanoma was above 100 µM throughout.
Regarding `Nc1ccc(Sc2ccc3c4c2cccc4c(=O)n2c4ccccc4nc32)cc1`, the GI50 with LOX IMVI melanoma is 3.32 µM; in the test with SK-MEL-28 melanoma, 12.8 µM; in the test with RPMI-8226 leukemia, 2.5 µM; with SK-MEL-2 melanoma, 8.87 µM; with NCI-H226 lung, 2.43 µM; in the test with SF-268 CNS it was 5.42 µM. Besides, the results for the GI50 with OVCAR-5 ovarian and in the test on MALME-3M melanoma were 14.9 µM and 3.12 µM, respectively. Further, the TGI in the test with LOX IMVI melanoma was 14.3 µM; with SK-MEL-28 melanoma, 35.3 µM; in the test with RPMI-8226 leukemia, 14.3 µM; with SK-MEL-2 melanoma, 65.6 µM; in the test with NCI-H226 lung, 11.3 µM; in the test on SF-268 CNS, 80.2 µM. Moreover, the concentration for total growth inhibition (TGI) with OVCAR-5 ovarian came out at 46 µM; in the test with MALME-3M melanoma it was 16.9 µM.
Consider `O=[P+](O)c1cc2c3ccccc3ccc2c2ccccc12`, for which the TGI in the test with LOX IMVI melanoma was above 100 µM; in the test on SK-MEL-28 melanoma, above 100 µM; in the test on RPMI-8226 leukemia, above 100 µM; in the test with NCI-H226 lung it was 94.2 µM; in the test with SF-268 CNS it was above 100 µM; with TK-10 renal it was above 100 µM.
As for `CC(=O)[O-].CC(=O)[O-].CC(=O)[O-].CC(=O)[O-].CO.CO.CO.[Rh+2].[Rh+2].c1ccc(-c2ccccn2)nc1`, the GI50 with LOX IMVI melanoma, with SK-MEL-28 melanoma, in the test on RPMI-8226 leukemia, in the test with NCI-H226 lung, with SF-268 CNS and with TK-10 renal was above 100 µM throughout. In addition, the GI50 in the test on OVCAR-5 ovarian was above 100 µM. Also, the TGI with LOX IMVI melanoma, in the test on SK-MEL-28 melanoma, in the test with RPMI-8226 leukemia, in the test on NCI-H226 lung, with SF-268 CNS and in the test on TK-10 renal was above 100 µM each time. The same compound had a TGI in the test on OVCAR-5 ovarian above 100 µM.
`Cn1c(-c2cccs2)cc(-c2ccsc2)c1-c1ccsc1`: the total growth inhibition concentration (TGI) in the test with SK-MEL-28 melanoma, with NCI-H226 lung, in the test with SF-268 CNS, in the test with TK-10 renal, in the test with OVCAR-5 ovarian and with MALME-3M melanoma was above 100 µM each time. The compound also had a TGI with HOP-92 NSCLC above 100 µM.
Consider `COC(=O)[C@@H](C)C[C@H](Cc1ccccc1)NC(=O)c1csc([C@@H](C[C@H](C(C)C)N(C)C(=O)[C@@H](NC(=O)CN(C)C)C2CC2)OC(C)=O)n1`, for which the GI50 in the test with LOX IMVI melanoma is 0.0301 µM; in the test with SK-MEL-28 melanoma, 10.2 µM; in the test with RPMI-8226 leukemia, 0.00576 µM; in the test with SK-MEL-2 melanoma, 0.00701 µM; with NCI-H226 lung it was 0.554 µM; in the test on SF-268 CNS, 0.0373 µM. Also, the GI50 in the test with TK-10 renal was 0.659 µM; in the test with OVCAR-5 ovarian it was 0.838 µM; in the test with MALME-3M melanoma, 0.0365 µM. Also, the concentration for total growth inhibition (TGI) is above 16.5 µM in the test with LOX IMVI melanoma; above 16.5 µM with SK-MEL-28 melanoma; above 7.96 µM with RPMI-8226 leukemia; 0.149 µM in the test with SK-MEL-2 melanoma; above 13.2 µM in the test on NCI-H226 lung; above 16.5 µM with SF-268 CNS. Also, the TGI in the test with TK-10 renal, in the test on OVCAR-5 ovarian and in the test with MALME-3M melanoma was above 16.5 µM throughout.
Take `N#CSc1cc(-c2nc3ccccc3o2)ccc1N`: the GI50 was 13.5 µM in the test with LOX IMVI melanoma; 29.6 µM in the test on SK-MEL-28 melanoma; 15.9 µM in the test with RPMI-8226 leukemia; 40.7 µM in the test on SK-MEL-2 melanoma; 5.23 µM with NCI-H226 lung; 22.6 µM in the test on SF-268 CNS. The GI50 in the test with TK-10 renal was 19.2 µM; in the test with OVCAR-5 ovarian, 25.2 µM; in the test with HOP-92 NSCLC it was 22.4 µM. The concentration for total growth inhibition (TGI) in the test with LOX IMVI melanoma was 43.9 µM; in the test with SK-MEL-28 melanoma, above 100 µM; in the test with RPMI-8226 leukemia, 53 µM; in the test on SK-MEL-2 melanoma it was above 74.3 µM; in the test with NCI-H226 lung, 37.8 µM; in the test with SF-268 CNS it was 83.4 µM. The results for the TGI with TK-10 renal, in the test with OVCAR-5 ovarian and in the test with HOP-92 NSCLC were 52.3 µM, 76.6 µM and 64.2 µM, respectively.
`CC(=O)OC1CC2C(C)(C)C(=O)C=C[C@]2(C)C2CCC3(C)C(=CCC3[C@H](CO)C[C@H](O)C(=O)C(C)(C)O)[C@]12C` (some centres not stated): the concentration for total growth inhibition (TGI) was determined as 33.6 µM with LOX IMVI melanoma; 36.5 µM with SK-MEL-28 melanoma; 64.2 µM with RPMI-8226 leukemia; 51.3 µM in the test on SK-MEL-2 melanoma; 42.2 µM in the test with NCI-H226 lung; 82.2 µM in the test on SF-268 CNS. For the same compound, the TGI in the test on TK-10 renal was 65.9 µM; in the test on OVCAR-5 ovarian it was 83.3 µM; in the test on MALME-3M melanoma, 33.3 µM.

As usually defined, the GI50 is the concentration giving 50% growth inhibition. By TGI is commonly meant the concentration at which net growth stops. A lower TGI goes with more potent growth arrest.
